This note sets out measurements from patent publication US20220259593A1, “CONTROL OF MAMMALIAN GENE DOSAGE USING CRISPR” (The Regents of the University of California, priority 2019, published 2022).

For this series, the system named is K562 CRISPRi cells. The series is described as follows: Perturb-seq pooled growth measurement (sgRNA counts, growth phenotype γ, relative activity). To be noted: sequencing read counts; for Perturb-seq pooled growth sgRNA counts, d5: 5 days of growth (day seven after transduction); for Perturb-seq pooled growth sgRNA counts, d10: 10 days of growth (day twelve after transduction); for Perturb-seq pooled growth sgRNA counts, T0: T0 = day two after transduction. The class given is cell-based, human. Summed up: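 CRISPRi K562 cells from the Perturb-seq transduced pool; 500,000-cell samples taken days two, seven and twelve post-transduction. sgRNA amplicons from genomic DNA sequenced; growth phenotypes from normalized sgRNA abundances at days seven and twelve versus day two. Relative activity assigned from day seven (five days' growth).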

“GINS1_−_25388381.23-P1P2_03: sgRNA targeting GINS1, GGACTATAACGAAAGGAGTG, SEQ ID NO: 96 (listed as DNA, chemistry not fully specified)”: the “Perturb-seq pooled growth sgRNA counts, d5” value is 2982; the “Perturb-seq pooled growth sgRNA counts, d10” value is given as 2755; the “Perturb-seq pooled growth sgRNA counts, T0” value is 9799.
For “GINS1_−_25388381.23-P1P2_06: sgRNA targeting GINS1, GGACTAGAACGGAAGGAGTG, SEQ ID NO: 95 (listed as DNA, chemistry not fully specified)” the same measures were 1828, 1219 and 11452.
For “GINS1_−_25388381.23-P1P2_08: sgRNA targeting GINS1, GGACTAGAGCGAAAGGAGTG, SEQ ID NO: 94 (listed as DNA, chemistry not fully specified)” the same measures were 2461, 1756 and 18173.
With “GINS1_−_25388381.23-P1P2_14: sgRNA targeting GINS1, GGACTAGAACGAAAGGAGCG, SEQ ID NO: 97 (listed as DNA, chemistry not fully specified)”, the “Perturb-seq pooled growth sgRNA counts, d5” value came out at 5833; the “Perturb-seq pooled growth sgRNA counts, d10” value worked out at 6093; the “Perturb-seq pooled growth sgRNA counts, T0” value amounted to 6443.
For “GNB2L1_+_180670873.23-P1P2_00: sgRNA targeting GNB2L1, GTGCAAGGCGGCGGCAGGAG, SEQ ID NO: 55 (listed as DNA, chemistry not fully specified)” the same measures were 2456, 1685 and 2280.
For “GNB2L1_+_180670873.23-P1P2_02: sgRNA targeting GNB2L1, GTGCAAGACGGCGGCAGGAG, SEQ ID NO: 59 (listed as DNA, chemistry not fully specified)” the same measures were 6216, 7618 and 3839.
For “GNB2L1_+_180670873.23-P1P2_07: sgRNA targeting GNB2L1, GTGCAAGGCGGGGGCAGGAG, SEQ ID NO: 58 (listed as DNA, chemistry not fully specified)” the same measures were 8322, 8738 and 9894.
In the case of “GNB2L1_+_180670873.23-P1P2_08: sgRNA targeting GNB2L1, GTGCAAGGTGGCGGCAGGAG, SEQ ID NO: 56 (listed as DNA, chemistry not fully specified)”, the “Perturb-seq pooled growth sgRNA counts, d5” value is given as 25247; the “Perturb-seq pooled growth sgRNA counts, d10” value is listed as 17083; the “Perturb-seq pooled growth sgRNA counts, T0” value is on record as 24451.
As for “GNB2L1_+_180670873.23-P1P2_13: sgRNA targeting GNB2L1, GTGCAAGGCGGCGGCGGGAG, SEQ ID NO: 57 (listed as DNA, chemistry not fully specified)”, the “Perturb-seq pooled growth sgRNA counts, d5” value is reported as 6350; the “Perturb-seq pooled growth sgRNA counts, d10” value is 5991; the “Perturb-seq pooled growth sgRNA counts, T0” value came to 4708.
For “HSPA5_+_128003624.23-P1P2_00: sgRNA targeting HSPA5, GAGCCGAGTAGGCGACGGTG, SEQ ID NO: 88 (listed as DNA, chemistry not fully specified)” the same measures were 1756, 2176 and 5785.
For “HSPA5_+_128003624.23-P1P2_01: sgRNA targeting HSPA5, GAACCGAGTAGGCGACGGTG, SEQ ID NO: 91 (listed as DNA, chemistry not fully specified)” the same measures were 3124, 3812 and 7580.
For “HSPA5_+_128003624.23-P1P2_04: sgRNA targeting HSPA5, GAGCCGAGAAGGCGACGGTG, SEQ ID NO: 89 (listed as DNA, chemistry not fully specified)” the same measures were 3304, 4282 and 11091.
For “HSPA5_+_128003624.23-P1P2_06: sgRNA targeting HSPA5, GAGCCGAGTAGACGACGGTG, SEQ ID NO: 92 (listed as DNA, chemistry not fully specified)”, the “Perturb-seq pooled growth sgRNA counts, d5” value came out at 17649; the “Perturb-seq pooled growth sgRNA counts, d10” value is reported as 23714; the “Perturb-seq pooled growth sgRNA counts, T0” value stood at 10180.
For “HSPA5_+_128003624.23-P1P2_08: sgRNA targeting HSPA5, GAGCCGAGTGGGCGACGGTG, SEQ ID NO: 90 (listed as DNA, chemistry not fully specified)” the same measures were 3005, 3487 and 10148.
For “HSPA9_−_137911079.23-P1P2_00: sgRNA targeting HSPA9, GGAGCTGCGCGATGCGGTGG, SEQ ID NO: 131 (listed as DNA, chemistry not fully specified)” the same measures were 944, 835 and 5450.
For “HSPA9_−_137911079.23-P1P2_02: sgRNA targeting HSPA9, GGAGTTGCGCGATGCGGTGG, SEQ ID NO: 133 (listed as DNA, chemistry not fully specified)” the same measures were 1727, 1872 and 4345.
Regarding “HSPA9_−_137911079.23-P1P2_04: sgRNA targeting HSPA9, GGAGCTGCGCAATGCGGTGG, SEQ ID NO: 135 (listed as DNA, chemistry not fully specified)”, the “Perturb-seq pooled growth sgRNA counts, d5” value stood at 9346; the “Perturb-seq pooled growth sgRNA counts, d10” value was found to be 10829; the “Perturb-seq pooled growth sgRNA counts, T0” value is 6754.
On to “HSPA9_−_137911079.23-P1P2_07: sgRNA targeting HSPA9, GGAGCTGCGGGATGCGGTGG, SEQ ID NO: 132 (listed as DNA, chemistry not fully specified)”, for which the “Perturb-seq pooled growth sgRNA counts, d5” value stood at 1513; the “Perturb-seq pooled growth sgRNA counts, d10” value is recorded as 1463; the “Perturb-seq pooled growth sgRNA counts, T0” value was determined as 5941.
For “HSPA9_−_137911079.23-P1P2_08: sgRNA targeting HSPA9, GGAGCTGCTCGATGCGGTGG, SEQ ID NO: 134 (listed as DNA, chemistry not fully specified)” the same measures were 2803, 2726 and 3137.
For “HSPE1_+_198365089.23-P1P2_00: sgRNA targeting HSPE1, GGAGACTCGCAGTCCGGCCC, SEQ ID NO: 9 (listed as DNA, chemistry not fully specified)” the same measures were 2348, 1179 and 6813.
For “HSPE1_+_198365089.23-P1P2_01: sgRNA targeting HSPE1, GGAGACACGCAGTCCGGCCC, SEQ ID NO: 65 (listed as DNA, chemistry not fully specified)” the same measures were 4228, 2663 and 9669.
For “HSPE1_+_198365089.23-P1P2_02: sgRNA targeting HSPE1, GGAGACTGGCAGTCCGGCCC, SEQ ID NO: 67 (listed as DNA, chemistry not fully specified)”, the “Perturb-seq pooled growth sgRNA counts, d5” value amounted to 5731; the “Perturb-seq pooled growth sgRNA counts, d10” value was 4437; the “Perturb-seq pooled growth sgRNA counts, T0” value is 7969.
For “HSPE1_+_198365089.23-P1P2_03: sgRNA targeting HSPE1, GGTGACTCGCAGTCCGGCCC, SEQ ID NO: 66 (listed as DNA, chemistry not fully specified)” the same measures were 3034, 2279 and 7473.
On to “HSPE1_+_198365089.23-P1P2_14: sgRNA targeting HSPE1, GGAGACTCGCAGTCCTGCCC, SEQ ID NO: 68 (listed as DNA, chemistry not fully specified)”, for which the “Perturb-seq pooled growth sgRNA counts, d5” value is 6501; the “Perturb-seq pooled growth sgRNA counts, d10” value is reported as 6498; the “Perturb-seq pooled growth sgRNA counts, T0” value worked out at 4808.
For “MTOR_+_11322547.23-P1P2_00: sgRNA targeting MTOR, GGGCAGGGGGCCTGAAGCGG, SEQ ID NO: 146 (listed as DNA, chemistry not fully specified)” the same measures were 6328, 3144 and 17632.
Turning to “MTOR_+_11322547.23-P1P2_05: sgRNA targeting MTOR, GGGCAGGGGGCTTGAAGCGG, SEQ ID NO: 148 (listed as DNA, chemistry not fully specified)”, the “Perturb-seq pooled growth sgRNA counts, d5” value was determined as 4083; the “Perturb-seq pooled growth sgRNA counts, d10” value was 3324; the “Perturb-seq pooled growth sgRNA counts, T0” value amounted to 5595.
